Experimental data: the supplement of paper PMC10307832

Legend:
Test in all cases: relative viability (nuclei count vs DMSO), 5 days (fraction); higher = more cells survive
Crizotinib + OSI-027 = compound: C[C@@H](Oc1cc(-c2cnn(C3CCNCC3)c2)cnc1N)c1c(Cl)ccc(F)c1Cl [Crizotinib] + COc1cccc2cc(-c3nc([C@H]4CC[C@H](C(=O)O)CC4)n4ncnc(N)c34)[nH]c12 [OSI-027] (partner 0.5 µM)
Method in brief: (§1)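 Relative viability was taken as the ratio of nuclei in treated wells to nuclei in vehicle wells. Lung cancer cell lines in 1536-well plates received compounds by pin tool one day after seeding, either one drug alone or a fixed anchor-drug dose plus five library-drug doses (not always all listed) in √10 steps. Nuclei were counted on 4× images after 5 days of treatment, and values are medians of duplicate plates.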

Carfilzomib + Trametinib = compound: CC(C)C[C@H](NC(=O)[C@H](CCc1ccccc1)NC(=O)CN1CCOCC1)C(=O)N[C@@H](Cc1ccccc1)C(=O)N[C@@H](CC(C)C)C(=O)[C@@]1(C)CO1 [Carfilzomib] + CC(=O)Nc1cccc(-n2c(=O)n(C3CC3)c(=O)c3c(Nc4ccc(I)cc4F)n(C)c(=O)c(C)c32)c1 [Trametinib] (partner 0.02 µM)
Method in brief: as §1

Crizotinib + Pictilisib = compound: C[C@@H](Oc1cc(-c2cnn(C3CCNCC3)c2)cnc1N)c1c(Cl)ccc(F)c1Cl [Crizotinib] + CS(=O)(=O)N1CCN(Cc2cc3nc(-c4cccc5[nH]ncc45)nc(N4CCOCC4)c3s2)CC1 [Pictilisib] (partner 1 µM)
Method in brief: as §1

Olaparib + AZD7762 = compound: O=C(c1cc(Cc2n[nH]c(=O)c3ccccc23)ccc1F)N1CCN(C(=O)C2CC2)CC1 [Olaparib] + NC(=O)Nc1cc(-c2cccc(F)c2)sc1C(=O)N[C@H]1CCCNC1 [AZD7762] (partner 0.2 µM)
Method in brief: as §1

## EKVX
Crizotinib + OSI-027; first compound 0.01 µM
  relative viability: 0.744
Crizotinib + OSI-027; first compound 0.03162 µM
  relative viability: 0.737
Crizotinib + OSI-027; first compound 0.1 µM
  relative viability: 0.756
Crizotinib + OSI-027; first compound 0.3162 µM
  relative viability: 0.651
Crizotinib + OSI-027; first compound 1 µM
  relative viability: 0.744
Carfilzomib + Trametinib; first compound 0.001 µM
  relative viability: 0.338
Carfilzomib + Trametinib; first compound 0.003162 µM
  relative viability: 0.418
Carfilzomib + Trametinib; first compound 0.01 µM
  relative viability: 0.368
Carfilzomib + Trametinib; first compound 0.1 µM
  relative viability: 0.172
Crizotinib + Pictilisib; first compound 0.01 µM
  relative viability: 0.406
Crizotinib + Pictilisib; first compound 0.03162 µM
  relative viability: 0.419
Crizotinib + Pictilisib; first compound 0.1 µM
  relative viability: 0.463
Crizotinib + Pictilisib; first compound 0.3162 µM
  relative viability: 0.453
Crizotinib + Pictilisib; first compound 1 µM
  relative viability: 0.47
Olaparib + AZD7762; first compound 0.08 µM
  relative viability: 0.81
Olaparib + AZD7762; first compound 0.253 µM
  relative viability: 0.618
Olaparib + AZD7762; first compound 2.53 µM
  relative viability: 0.782
Olaparib + AZD7762; first compound 8 µM
  relative viability: 0.741

## EMC-BAC-2
Crizotinib + OSI-027; first compound 0.01 µM
  relative viability: 0.431
Crizotinib + OSI-027; first compound 0.03162 µM
  relative viability: 0.391
Crizotinib + OSI-027; first compound 0.1 µM
  relative viability: 0.342
Crizotinib + OSI-027; first compound 0.3162 µM
  relative viability: 0.295
Crizotinib + OSI-027; first compound 1 µM
  relative viability: 0.36
Carfilzomib + Trametinib; first compound 0.001 µM
  relative viability: 0.895
Carfilzomib + Trametinib; first compound 0.003162 µM
  relative viability: 0.962
Carfilzomib + Trametinib; first compound 0.01 µM
  relative viability: 1.04
Carfilzomib + Trametinib; first compound 0.03162 µM
  relative viability: 0.791
Carfilzomib + Trametinib; first compound 0.1 µM
  relative viability: 0.277
Crizotinib + Pictilisib; first compound 0.01 µM
  relative viability: 0.514
Crizotinib + Pictilisib; first compound 0.03162 µM
  relative viability: 0.536
Crizotinib + Pictilisib; first compound 0.1 µM
  relative viability: 0.527
Crizotinib + Pictilisib; first compound 0.3162 µM
  relative viability: 0.305
Crizotinib + Pictilisib; first compound 1 µM
  relative viability: 0.52
Olaparib + AZD7762; first compound 0.08 µM
  relative viability: 1.25
Olaparib + AZD7762; first compound 0.253 µM
  relative viability: 1.08
Olaparib + AZD7762; first compound 2.53 µM
  relative viability: 1.08
Olaparib + AZD7762; first compound 8 µM
  relative viability: 0.91

## EPLC-272H
Crizotinib + OSI-027; first compound 0.01 µM
  relative viability: 0.312
Crizotinib + OSI-027; first compound 0.03162 µM
  relative viability: 0.253
Crizotinib + OSI-027; first compound 0.1 µM
  relative viability: 0.287
Crizotinib + OSI-027; first compound 0.3162 µM
  relative viability: 0.252
Crizotinib + OSI-027; first compound 1 µM
  relative viability: 0.259
Carfilzomib + Trametinib; first compound 0.001 µM
  relative viability: 0.281
Carfilzomib + Trametinib; first compound 0.003162 µM
  relative viability: 0.303
Carfilzomib + Trametinib; first compound 0.01 µM
  relative viability: 0.286
Carfilzomib + Trametinib; first compound 0.03162 µM
  relative viability: 0.0724
Carfilzomib + Trametinib; first compound 0.1 µM
  relative viability: 0.0619
Crizotinib + Pictilisib; first compound 0.01 µM
  relative viability: 0.287
Crizotinib + Pictilisib; first compound 0.03162 µM
  relative viability: 0.365
Crizotinib + Pictilisib; first compound 0.1 µM
  relative viability: 0.327
Crizotinib + Pictilisib; first compound 0.3162 µM
  relative viability: 0.3
Crizotinib + Pictilisib; first compound 1 µM
  relative viability: 0.299
Olaparib + AZD7762; first compound 0.08 µM
  relative viability: 0.289
Olaparib + AZD7762; first compound 0.253 µM
  relative viability: 0.163
Olaparib + AZD7762; first compound 2.53 µM
  relative viability: 0.176
Olaparib + AZD7762; first compound 8 µM
  relative viability: 0.114

## H3255
Crizotinib + OSI-027; first compound 0.01 µM
  relative viability: 0.6
Crizotinib + OSI-027; first compound 0.03162 µM
  relative viability: 0.652
Crizotinib + OSI-027; first compound 0.1 µM
  relative viability: 0.633
Crizotinib + OSI-027; first compound 0.3162 µM
  relative viability: 0.509
Crizotinib + OSI-027; first compound 1 µM
  relative viability: 0.61
Carfilzomib + Trametinib; first compound 0.001 µM
  relative viability: 0.67
Carfilzomib + Trametinib; first compound 0.003162 µM
  relative viability: 0.737
Carfilzomib + Trametinib; first compound 0.01 µM
  relative viability: 0.643
Carfilzomib + Trametinib; first compound 0.1 µM
  relative viability: 0.24
Crizotinib + Pictilisib; first compound 0.01 µM
  relative viability: 0.36
Crizotinib + Pictilisib; first compound 0.03162 µM
  relative viability: 0.486
Crizotinib + Pictilisib; first compound 0.1 µM
  relative viability: 0.533
Crizotinib + Pictilisib; first compound 0.3162 µM
  relative viability: 0.468
Crizotinib + Pictilisib; first compound 1 µM
  relative viability: 0.456
Olaparib + AZD7762; first compound 0.08 µM
  relative viability: 1.04
Olaparib + AZD7762; first compound 0.253 µM
  relative viability: 0.823
Olaparib + AZD7762; first compound 2.53 µM
  relative viability: 0.852
Olaparib + AZD7762; first compound 8 µM
  relative viability: 0.933

## HARA
Crizotinib + OSI-027; first compound 0.01 µM
  relative viability: 0.543
Crizotinib + OSI-027; first compound 0.03162 µM
  relative viability: 0.504
Crizotinib + OSI-027; first compound 0.1 µM
  relative viability: 0.46
Crizotinib + OSI-027; first compound 1 µM
  relative viability: 0.432
Carfilzomib + Trametinib; first compound 0.001 µM
  relative viability: 0.66
Carfilzomib + Trametinib; first compound 0.003162 µM
  relative viability: 0.693
Carfilzomib + Trametinib; first compound 0.01 µM
  relative viability: 0.627
Carfilzomib + Trametinib; first compound 0.03162 µM
  relative viability: 0.339
Carfilzomib + Trametinib; first compound 0.1 µM
  relative viability: 0.109
Crizotinib + Pictilisib; first compound 0.01 µM
  relative viability: 0.351
Crizotinib + Pictilisib; first compound 0.03162 µM
  relative viability: 0.441
Crizotinib + Pictilisib; first compound 0.1 µM
  relative viability: 0.262
Crizotinib + Pictilisib; first compound 0.3162 µM
  relative viability: 0.511
Crizotinib + Pictilisib; first compound 1 µM
  relative viability: 0.46
Olaparib + AZD7762; first compound 0.08 µM
  relative viability: 0.302
Olaparib + AZD7762; first compound 0.253 µM
  relative viability: 0.43
Olaparib + AZD7762; first compound 2.53 µM
  relative viability: 0.251
Olaparib + AZD7762; first compound 8 µM
  relative viability: 0.206

## HCC-15
Crizotinib + OSI-027; first compound 0.01 µM
  relative viability: 0.626
Crizotinib + OSI-027; first compound 0.03162 µM
  relative viability: 0.754
Crizotinib + OSI-027; first compound 0.1 µM
  relative viability: 0.633
Crizotinib + OSI-027; first compound 1 µM
  relative viability: 0.568
Carfilzomib + Trametinib; first compound 0.001 µM
  relative viability: 0.367
Carfilzomib + Trametinib; first compound 0.003162 µM
  relative viability: 0.426
Carfilzomib + Trametinib; first compound 0.01 µM
  relative viability: 0.432
Carfilzomib + Trametinib; first compound 0.03162 µM
  relative viability: 0.372
Carfilzomib + Trametinib; first compound 0.1 µM
  relative viability: 0.17
Crizotinib + Pictilisib; first compound 0.01 µM
  relative viability: 0.622
Crizotinib + Pictilisib; first compound 0.03162 µM
  relative viability: 0.69
Crizotinib + Pictilisib; first compound 0.1 µM
  relative viability: 0.722
Crizotinib + Pictilisib; first compound 0.3162 µM
  relative viability: 0.391
Crizotinib + Pictilisib; first compound 1 µM
  relative viability: 0.687
Olaparib + AZD7762; first compound 0.08 µM
  relative viability: 1.24
Olaparib + AZD7762; first compound 0.253 µM
  relative viability: 1.11
Olaparib + AZD7762; first compound 2.53 µM
  relative viability: 1.23
Olaparib + AZD7762; first compound 8 µM
  relative viability: 1.08

## HCC-44
Crizotinib + OSI-027; first compound 0.01 µM
  relative viability: 0.409
Crizotinib + OSI-027; first compound 0.03162 µM
  relative viability: 0.546
Crizotinib + OSI-027; first compound 0.1 µM
  relative viability: 0.611
Crizotinib + OSI-027; first compound 0.3162 µM
  relative viability: 0.54
Crizotinib + OSI-027; first compound 1 µM
  relative viability: 0.371
Carfilzomib + Trametinib; first compound 0.001 µM
  relative viability: 0.966
Carfilzomib + Trametinib; first compound 0.003162 µM
  relative viability: 1.08
Carfilzomib + Trametinib; first compound 0.01 µM
  relative viability: 1
Carfilzomib + Trametinib; first compound 0.03162 µM
  relative viability: 1.07
Carfilzomib + Trametinib; first compound 0.1 µM
  relative viability: 0.77
Crizotinib + Pictilisib; first compound 0.01 µM
  relative viability: 0.464
Crizotinib + Pictilisib; first compound 0.03162 µM
  relative viability: 0.578
Crizotinib + Pictilisib; first compound 0.1 µM
  relative viability: 0.538
Crizotinib + Pictilisib; first compound 0.3162 µM
  relative viability: 0.665
Crizotinib + Pictilisib; first compound 1 µM
  relative viability: 0.503
Olaparib + AZD7762; first compound 0.08 µM
  relative viability: 1.01
Olaparib + AZD7762; first compound 0.253 µM
  relative viability: 1
Olaparib + AZD7762; first compound 2.53 µM
  relative viability: 1.03
Olaparib + AZD7762; first compound 8 µM
  relative viability: 1.07

## HCC-78
Crizotinib + OSI-027; first compound 0.03162 µM
  relative viability: 0.365
Crizotinib + OSI-027; first compound 0.1 µM
  relative viability: 0.29
Crizotinib + OSI-027; first compound 0.3162 µM
  relative viability: 0.307
Crizotinib + OSI-027; first compound 1 µM
  relative viability: 0.34
Carfilzomib + Trametinib; first compound 0.001 µM
  relative viability: 0.672
Carfilzomib + Trametinib; first compound 0.003162 µM
  relative viability: 0.849
Carfilzomib + Trametinib; first compound 0.01 µM
  relative viability: 0.69
Carfilzomib + Trametinib; first compound 0.03162 µM
  relative viability: 0.597
Carfilzomib + Trametinib; first compound 0.1 µM
  relative viability: 0.255
Crizotinib + Pictilisib; first compound 0.01 µM
  relative viability: 0.204
Crizotinib + Pictilisib; first compound 0.03162 µM
  relative viability: 0.206
Crizotinib + Pictilisib; first compound 0.1 µM
  relative viability: 0.205
Crizotinib + Pictilisib; first compound 0.3162 µM
  relative viability: 0.167
Crizotinib + Pictilisib; first compound 1 µM
  relative viability: 0.204
Olaparib + AZD7762; first compound 0.08 µM
  relative viability: 0.839
Olaparib + AZD7762; first compound 0.253 µM
  relative viability: 0.664
Olaparib + AZD7762; first compound 2.53 µM
  relative viability: 0.672
Olaparib + AZD7762; first compound 8 µM
  relative viability: 0.737

## HCC-366
Crizotinib + OSI-027; first compound 0.01 µM
  relative viability: 0.885
Crizotinib + OSI-027; first compound 0.03162 µM
  relative viability: 0.931
Crizotinib + OSI-027; first compound 0.1 µM
  relative viability: 0.889
Crizotinib + OSI-027; first compound 1 µM
  relative viability: 0.901
Carfilzomib + Trametinib; first compound 0.001 µM
  relative viability: 0.345
Carfilzomib + Trametinib; first compound 0.003162 µM
  relative viability: 0.388
Carfilzomib + Trametinib; first compound 0.01 µM
  relative viability: 0.405
Carfilzomib + Trametinib; first compound 0.03162 µM
  relative viability: 0.293
Carfilzomib + Trametinib; first compound 0.1 µM
  relative viability: 0.0458
Crizotinib + Pictilisib; first compound 0.01 µM
  relative viability: 0.101
Crizotinib + Pictilisib; first compound 0.03162 µM
  relative viability: 0.141
Crizotinib + Pictilisib; first compound 0.1 µM
  relative viability: 0.183
Crizotinib + Pictilisib; first compound 0.3162 µM
  relative viability: 0.11
Crizotinib + Pictilisib; first compound 1 µM
  relative viability: 0.17
Olaparib + AZD7762; first compound 0.08 µM
  relative viability: 0.258
Olaparib + AZD7762; first compound 0.253 µM
  relative viability: 0.196
Olaparib + AZD7762; first compound 2.53 µM
  relative viability: 0.168
Olaparib + AZD7762; first compound 8 µM
  relative viability: 0.0718
